Measured values published in patent US11325938B2, “CD73 inhibitors” (ORIC Pharmaceuticals, Inc., priority 2018, dated 2022).

target: CD73 (Homo sapiens (Human), UniProt P21589); experiment: Biochemical assay: inhibition of CD73 activity (AMP hydrolysis, Malachite Green readout); conditions: CD73 0.3208 nM, AMP 15 μM, 25 mM Tris-HCl pH 7.4, RT, absorbance 620 nm
How it was run: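 Human CD73 (320 pM final) preincubated 15 min at RT with compounds (10-point ½-log titration from 100 μM, duplicates) in 25 mM Tris-HCl pH 7.4, 5 mM MgCl2, 0.01% Brij-35, 0.01% BSA. 15 μM AMP added, 10 min at RT; released phosphate read by Malachite Green absorbance; IC50 determined.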

CD73, sequence (P21589 27-574): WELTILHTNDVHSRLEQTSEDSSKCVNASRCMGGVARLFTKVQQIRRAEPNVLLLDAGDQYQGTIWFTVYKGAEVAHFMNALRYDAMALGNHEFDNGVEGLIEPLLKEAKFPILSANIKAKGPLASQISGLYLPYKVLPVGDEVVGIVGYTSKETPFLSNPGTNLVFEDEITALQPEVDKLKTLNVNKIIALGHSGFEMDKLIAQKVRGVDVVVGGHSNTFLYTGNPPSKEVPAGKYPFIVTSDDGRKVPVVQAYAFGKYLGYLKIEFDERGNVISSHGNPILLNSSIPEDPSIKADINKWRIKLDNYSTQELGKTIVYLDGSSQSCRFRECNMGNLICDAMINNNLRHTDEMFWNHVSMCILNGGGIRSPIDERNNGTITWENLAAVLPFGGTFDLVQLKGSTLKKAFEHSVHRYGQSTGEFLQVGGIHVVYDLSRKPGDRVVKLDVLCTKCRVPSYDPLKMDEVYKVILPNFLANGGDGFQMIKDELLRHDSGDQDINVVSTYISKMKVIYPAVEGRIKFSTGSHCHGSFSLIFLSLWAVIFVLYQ

Which IC50 does the source give for O=P(O)(O)C(OC[C@H]1O[C@@H](n2ncc3c(NC4CCCC4)nc(Cl)nc32)[C@H](O)[C@@H]1O)C(F)(F)F (stereo partly drawn) [Example 80, (1-(((2R,3S,4R,5R)-5-(6-chloro-4-(cyclopentylamino)-1H-pyrazolo[3,4-d]pyrimidin-1-yl)-3,4-dihydroxytetrahydrofuran-2-yl)methoxy)-2,2,2-trifluoroethyl)phosphonic acid] here?
Its IC50 is 100 to 1000 nM.

Which IC50 does the source give for CN(C)CC(C)(OC[C@H]1O[C@@H](n2ncc3c(NC4CCCC4)nc(Cl)nc32)[C@H](O)[C@@H]1O)P(=O)(O)O (stereo partly drawn) [Example 81, (2-(((2R,3S,4R,5R)-5-(6-chloro-4-(cyclopentylamino)-1H-pyrazolo[3,4-d]pyrimidin-1-yl)-3,4-dihydroxytetrahydrofuran-2-yl)methoxy)-1-(dimethylamino)propan-2-yl)phosphonic acid] here?
Its IC50 is over 1000 nM.

COCC(C)(OC[C@H]1O[C@@H](n2nnc3c(NC4CCCC4)nc(Cl)nc32)[C@H](O)[C@@H]1O)P(=O)(O)O (stereo partly drawn) [Example 82, (2-(((2R,3S,4R,5R)-5-(5-chloro-7-(cyclopentylamino)-3H-[1,2,3]triazolo[4,5-d]pyrimidin-3-yl)-3,4-dihydroxytetrahydrofuran-2-yl)methoxy)-1-methoxypropan-2-yl)phosphonic acid] was tested. Which IC50 did it give?
Its IC50 is at most 100 nM.

Which IC50 does the source give for O=P(O)(O)CS(=O)(=O)C[C@H]1O[C@@H](n2nnc3c(N[C@@H]4CCc5ccccc54)cc(Cl)nc32)[C@H](O)[C@@H]1O [Example 83] here?
Its IC50 is at most 100 nM.

How did the IC50 turn out when O=P(O)(O)C(CO)(Cc1nn[nH]n1)OC[C@H]1O[C@@H](n2ncc3c(NC4CCCC4)nc(Cl)nc32)[C@H](O)[C@@H]1O (stereo partly drawn) [Example 84, (2-(((2R,3S,4R,5R)-5-(6-Chloro-4-(cyclopentylamino)-1H-pyrazolo[3,4-d]pyrimidin-1-yl)-3,4-dihydroxytetrahydrofuran-2-yl)methoxy)-1-hydroxy-3-(2H-tetrazol-5-yl)propan-2-yl)phosphonic acid] was run?
The IC50 was at most 100 nM.

How did the IC50 turn out when CC(COCCO)(OC[C@H]1O[C@@H](n2ncc3c(NC4CCCC4)nc(Cl)nc32)[C@H](O)[C@@H]1O)P(=O)(O)O (stereo partly drawn) [Example 85, (2-(((2R,3S,4R,5R)-5-(6-Chloro-4-(cyclopentylamino)-1H-pyrazolo[3,4-d]pyrimidin-1-yl)-3,4-dihydroxytetrahydrofuran-2-yl)methoxy)-1-(2-hydroxyethoxy)propan-2-yl)phosphonic acid] was run?
The IC50 was at most 100 nM.

Which IC50 does the source give for O=P(O)(O)C(CO)(CO)OC[C@H]1O[C@@H](n2ncc3c(NC4CCCC4)nc(Cl)nc32)[C@H](O)[C@@H]1O [Example 86, [1-[[(2R,3S,4R,5R)-5-[6-Chloro-4-(cyclopentylamino)pyrazolo[3,4-d]pyrimidin-1-yl]-3,4-dihydroxy-tetrahydrofuran-2-yl]methoxy]-2-hydroxy-1-(hydroxymethyl)ethyl]phosphonic acid] here?
The IC50 was at most 100 nM.

COCC(COC)(OC[C@H]1O[C@@H](n2ncc3c(NC4CCCC4)nc(Cl)nc32)[C@H](O)[C@@H]1O)P(=O)(O)O [Example 87, [1-[[(2R,3S,4R,5R)-5-[6-Chloro-4-(cyclopentylamino)pyrazolo[3,4-d]pyrimidin-1-yl]-3,4-dihydroxy-tetrahydrofuran-2-yl]methoxy]-2-methoxy-1-(methoxymethyl)ethyl]phosphonic acid] was tested. Which IC50 did it give?
The IC50 was at most 100 nM.

How did the IC50 turn out when CC(CO)(OC[C@H]1O[C@@H](n2ncc3c(NC4CCCC4)nc(CCCO)nc32)[C@H](O)[C@@H]1O)P(=O)(O)O (stereo partly drawn) [Example 88, 2-(((2R,3S,4R,5R)-5-(4-(Cyclopentylamino)-6-(3-hydroxypropyl)-1H-pyrazolo[3,4-d]pyrimidin-1-yl)-3,4-dihydroxytetrahydrofuran-2-yl)methoxy)-1-hydroxypropan-2-ylphosphonic acid] was run?
Its IC50 is at most 100 nM.

Which IC50 does the source give for CC(CO)(OC[C@H]1O[C@@H](n2ncc3c(NC4CCCC4)nc(C#CCO)nc32)[C@H](O)[C@@H]1O)P(=O)(O)O (stereo partly drawn) [Example 89, (2-(((2R,3S,4R,5R)-5-(4-(Cyclopentylamino)-6-(3-hydroxyprop-1-yn-1-yl)-1H-pyrazolo[3,4-d]pyrimidin-1-yl)-3,4-dihydroxytetrahydrofuran-2-yl)methoxy)-1-hydroxypropan-2-yl)phosphonic acid] here?
Its IC50 is at most 100 nM.

For COCC(C)(OC[C@H]1O[C@@H](n2ncc3c(NC4CCCC4)nc(CO)nc32)[C@H](O)[C@@H]1O)P(=O)(O)O (stereo partly drawn) [Example 90, (2-(((2R,3S,4R,5R)-5-(4-(Cyclopentylamino)-6-(hydroxymethyl)-1H-pyrazolo[3,4-d]pyrimidin-1-yl)-3,4-dihydroxytetrahydrofuran-2-yl)methoxy)-1-methoxypropan-2-yl)phosphonic acid], which IC50 is on record?
Its IC50 is at most 100 nM.

For CC(CO)(OC[C@H]1O[C@@H](n2ccc3c(NC4CCCC4)nc(Cl)nc32)[C@H](O)[C@@H]1O)P(=O)(O)O (stereo partly drawn) [Example 91, (2-(((2R,3S,4R,5R)-5-(2-Chloro-4-(cyclopentylamino)-7H-pyrrolo[2,3-d]pyrimidin-7-yl)-3,4-dihydroxytetrahydrofuran-2-yl)methoxy)-1-hydroxypropan-2-yl)phosphonic acid], which IC50 is on record?
Its IC50 is at most 100 nM.

O=P(O)(O)[C@](CO)(Cc1ncco1)OC[C@H]1O[C@@H](n2ncc3c(NC4CCCC4)nc(Cl)nc32)[C@H](O)[C@@H]1O [Example 92, ((S)-2-(((2R,3S,4R,5R)-5-(6-chloro-4-(cyclopentylamino)-1H-pyrazolo[3,4-d]pyrimidin-1-yl)-3,4-dihydroxytetrahydrofuran-2-yl)methoxy)-1-hydroxy-3-(oxazol-2-yl)propan-2-yl)phosphonic acid] was tested. Which IC50 did it give?
The IC50 was at most 100 nM.

Which IC50 does the source give for O=P(O)(O)C(CO)(Cc1ccccn1)OC[C@H]1O[C@@H](n2ncc3c(NC4CCCC4)nc(Cl)nc32)[C@H](O)[C@@H]1O (stereo partly drawn) [Example 93, (2-(((2R,3S,4R,5R)-5-(6-chloro-4-(cyclopentylamino)-1H-pyrazolo[3,4-d]pyrimidin-1-yl)-3,4-dihydroxytetrahydrofuran-2-yl)methoxy)-1-hydroxy-3-(pyridin-2-yl)propan-2-yl)phosphonic acid] here?
The IC50 was at most 100 nM.

For Cn1cnc(CC(CO)(OC[C@H]2O[C@@H](n3ncc4c(NC5CCCC5)nc(Cl)nc43)[C@H](O)[C@@H]2O)P(=O)(O)O)c1 (stereo partly drawn) [Example 94, (2-(((2R,3S,4R,5R)-5-(6-chloro-4-(cyclopentylamino)-1H-pyrazolo[3,4-d]pyrimidin-1-yl)-3,4-dihydroxytetrahydrofuran-2-yl)methoxy)-1-hydroxy-3-(1-methyl-1H-imidazol-4-yl)propan-2-yl)phosphonic acid], which IC50 is on record?
The IC50 was 100 to 1000 nM.

For O=P(O)(O)C(CO)(COCC(F)(F)F)OC[C@H]1O[C@@H](n2ncc3c(NC4CCCC4)nc(Cl)nc32)[C@H](O)[C@@H]1O (stereo partly drawn) [Example 95, (2-(((2R,3S,4R,5R)-5-(6-chloro-4-(cyclopentylamino)-1H-pyrazolo[3,4-d]pyrimidin-1-yl)-3,4-dihydroxytetrahydrofuran-2-yl)methoxy)-1-hydroxy-3-(2,2,2-trifluoroethoxy)propan-2-yl)phosphonic acid], which IC50 is on record?
The IC50 was at most 100 nM.

With Cn1nnc(CC(CO)(OC[C@H]2O[C@@H](n3ncc4c(NC5CCCC5)nc(Cl)nc43)[C@H](O)[C@@H]2O)P(=O)(O)O)n1 (stereo partly drawn) [Example 96, (2-(((2R,3S,4R,5R)-5-(6-chloro-4-(cyclopentylamino)-1H-pyrazolo[3,4-d]pyrimidin-1-yl)-3,4-dihydroxytetrahydrofuran-2-yl)methoxy)-1-hydroxy-3-(2-methyl-2H-tetrazol-5-yl)propan-2-yl)phosphonic acid] as the molecule, how does the IC50 read?
Its IC50 is at most 100 nM.
